In patent US20210300940A1 (Merck Patent GmbH, priority 2018, published 2021):

Key:
[1] = biological target: T1, TLR7 (Homo sapiens, UniProt Q9NYK1); assay: HEK/293 TLR7 Cell Assay; type: cell-based; conditions: TLR7/NFKb HEK cells, R848 agonist 10 uM final concentration, Steady-Glo readout; read-out: TLR7 potency
T1 construct: expressed in transfected cells; host or cells: HEK/293 cells carrying TLR7 and an NF-kB luciferase reporter
T1 sequence (Q9NYK1 27-1049): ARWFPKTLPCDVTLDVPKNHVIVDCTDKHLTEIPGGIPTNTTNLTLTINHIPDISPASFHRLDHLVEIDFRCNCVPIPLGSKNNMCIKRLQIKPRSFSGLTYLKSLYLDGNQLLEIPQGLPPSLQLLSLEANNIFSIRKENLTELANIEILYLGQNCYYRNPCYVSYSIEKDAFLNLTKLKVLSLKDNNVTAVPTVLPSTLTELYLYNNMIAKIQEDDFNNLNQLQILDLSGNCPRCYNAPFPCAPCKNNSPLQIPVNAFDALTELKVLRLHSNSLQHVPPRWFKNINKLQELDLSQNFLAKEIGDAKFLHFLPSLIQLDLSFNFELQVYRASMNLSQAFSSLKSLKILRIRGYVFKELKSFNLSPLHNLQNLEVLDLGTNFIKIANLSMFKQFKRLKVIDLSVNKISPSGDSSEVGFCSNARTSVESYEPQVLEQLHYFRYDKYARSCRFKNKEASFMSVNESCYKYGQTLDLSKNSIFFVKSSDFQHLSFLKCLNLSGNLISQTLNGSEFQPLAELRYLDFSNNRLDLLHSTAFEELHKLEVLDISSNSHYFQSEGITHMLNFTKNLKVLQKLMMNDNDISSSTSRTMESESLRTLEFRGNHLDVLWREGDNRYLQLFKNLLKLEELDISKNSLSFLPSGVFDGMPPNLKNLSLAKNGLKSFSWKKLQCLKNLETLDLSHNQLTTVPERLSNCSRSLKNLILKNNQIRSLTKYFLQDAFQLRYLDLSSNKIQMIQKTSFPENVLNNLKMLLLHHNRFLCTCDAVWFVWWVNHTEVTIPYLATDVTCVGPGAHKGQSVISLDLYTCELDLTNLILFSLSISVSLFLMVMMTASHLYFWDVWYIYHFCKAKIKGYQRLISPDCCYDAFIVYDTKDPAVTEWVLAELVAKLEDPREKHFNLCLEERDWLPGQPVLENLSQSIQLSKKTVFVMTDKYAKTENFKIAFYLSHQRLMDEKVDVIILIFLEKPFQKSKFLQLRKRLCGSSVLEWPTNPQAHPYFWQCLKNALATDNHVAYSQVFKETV
Description: (§1) Example 389: HEK/293 TLR7 Cell Assay Into 384 CulturePlates (Corning 3765) was placed 5000 c/w of TLR7/NFKb HEK cells in 30 uL DMEM without Phenol red (gibco #31053-028) and 10% heat inactivated fetal bovine serum, 10% penicillin-streptomycin, and 2 mM L-Glutamine. The cells were incubated for 24 h at 37° C., 10% carbon dioxide and 90% relative humidity. 3 uL of controls, standards, and compounds were dispensed into wells, incubated for 30 min then 3 uL of R848 agonist (10 uM final concentration) was added in 20 mM Hepes. After incubation for 5 hours, they were allowed to stand at room temperature for 15 min. To this was added 10 uL of Steady-Glo substrate reagent and shake assay plate for 5 min at 1500 rpm. The assay plate was allowed to sit for 30 min at room temperature and then the plate was read on EnVision.

[2] = biological target: T2, TLR8 (Homo sapiens, UniProt Q9NR97); assay: HEK/293 TLR8 Cell Assay; type: cell-based; conditions: HEK cells, R848 agonist 30 uM final concentration, Steady-Glo readout; read-out: TLR8 potency
T2 construct: expressed in transfected cells; host or cells: HEK/293 reporter cells (NF-kB luciferase)
T2 sequence (Q9NR97 27-1041): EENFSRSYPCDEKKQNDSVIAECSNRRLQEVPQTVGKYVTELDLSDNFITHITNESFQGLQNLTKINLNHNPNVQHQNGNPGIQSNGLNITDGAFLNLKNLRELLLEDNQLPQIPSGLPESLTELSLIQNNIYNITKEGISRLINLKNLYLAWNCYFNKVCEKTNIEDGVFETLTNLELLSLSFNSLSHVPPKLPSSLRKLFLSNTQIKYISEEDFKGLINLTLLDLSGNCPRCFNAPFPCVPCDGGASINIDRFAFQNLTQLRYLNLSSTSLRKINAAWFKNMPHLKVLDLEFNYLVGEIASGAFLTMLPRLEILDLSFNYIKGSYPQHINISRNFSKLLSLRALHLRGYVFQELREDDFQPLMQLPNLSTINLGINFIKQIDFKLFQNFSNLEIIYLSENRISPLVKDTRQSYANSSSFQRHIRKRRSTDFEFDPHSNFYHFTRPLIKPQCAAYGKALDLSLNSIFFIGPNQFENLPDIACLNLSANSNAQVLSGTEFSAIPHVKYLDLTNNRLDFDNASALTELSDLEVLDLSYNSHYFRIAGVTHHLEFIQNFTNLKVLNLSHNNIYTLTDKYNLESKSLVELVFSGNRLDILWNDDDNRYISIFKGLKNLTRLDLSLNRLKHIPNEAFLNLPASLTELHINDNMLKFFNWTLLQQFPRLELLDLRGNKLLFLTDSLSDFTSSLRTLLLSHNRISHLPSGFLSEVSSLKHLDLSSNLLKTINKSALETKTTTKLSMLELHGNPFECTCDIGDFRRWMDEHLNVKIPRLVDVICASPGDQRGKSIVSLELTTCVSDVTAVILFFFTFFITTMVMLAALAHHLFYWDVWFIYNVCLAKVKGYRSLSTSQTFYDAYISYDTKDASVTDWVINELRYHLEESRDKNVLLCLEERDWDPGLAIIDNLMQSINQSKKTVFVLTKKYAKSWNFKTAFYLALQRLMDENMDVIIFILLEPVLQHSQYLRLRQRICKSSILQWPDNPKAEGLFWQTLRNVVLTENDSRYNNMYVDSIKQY
Description: as §1, with “Example 390:” for “Example 389:”, “HEK/293 TLR8” for “HEK/293 TLR7”, “serum, 1%” for “serum, 10%”, “agonist (30” for “agonist (10”

Row | Structure (SMILES) | IC50 [1] | IC50 [2]
1 | C[C@H]1C[C@@H](OCCN2CCN(C)CC2)CN(c2ccc(C(F)(F)F)c3ncccc23)C1 (racemic) [Example 2, 5-[cis-3-methyl-5-[2-(4-methylpiperazin-1-yl)ethoxy]piperidin-1-yl]-8-(trifluoromethyl)quinoline] | < 75 nM | < 75 nM
2 | C[C@H]1C[C@@H](OCCN2CCCCC2)CN(c2ccc(C(F)(F)F)c3ncccc23)C1 (racemic) [Example 3, 5-[cis-3-methyl-5-[2-(piperidin-1-yl)ethoxy]piperidin-1-yl]-8-(trifluoromethyl)quinolone] | > 150 nM | < 75 nM
3 | C[C@H]1C[C@@H](n2ccnn2)CN(c2ccc(C#N)c3nccnc23)C1 (racemic) [Example 153, 8-[cis-3-methyl-5-(1H-1,2,3-triazol-1-yl)piperidin-1-yl]quinoxaline-5-carbonitrile] | > 150 nM | < 75 nM
4 | C[C@H]1C[C@@H](n2ccnn2)CN(c2ccc(C(F)(F)F)c3nccnc23)C1 (racemic) [Example 154, 5-[cis-3-methyl-5-(1H-1,2,3-triazol-1-yl)piperidin-1-yl]-8-(trifluoromethyl)quinoxaline] | > 150 nM | 75 to 150 nM
5 | C[C@H]1C[C@@H](n2cccn2)CN(c2ccc(C(F)(F)F)c3nccnc23)C1 (racemic) [Example 155, 5-[cis-3-methyl-5-(1H-pyrazol-1-yl)piperidin-1-yl]-8-(trifluoromethyl)quinoxaline] | > 150 nM | > 150 nM
6 | N#Cc1ccc(N2C[C@H](n3cccn3)C[C@H](C(F)(F)F)C2)c2nccnc12 (racemic) [Example 156, 8-[cis-3-(1H-pyrazol-1-yl)-5-(trifluoromethyl)piperidin-1-yl]quinoxaline-5-carbonitrile] | > 150 nM | > 150 nM
7 | Cc1nnc([C@H]2CN(c3ccc(C#N)c4nccnc34)C[C@@H](C)O2)o1 (racemic) [Example 212, 8-[(2R,6R)-2-Methyl-6-(5-methyl-[1,3,4]oxadiazol-2-yl)-morpholin-4-yl]-quinoxaline-5-carbonitrile] | > 150 nM | < 75 nM
8 | Cc1noc([C@H]2CN(c3ccc(C#N)c4nccnc34)C[C@@H](C)O2)n1 (racemic) [Example 213, 8-[(2R,6R)-2-Methyl-6-(3-methyl-[1,2,4]oxadiazol-5-yl)-morpholin-4-yl]-quinoxaline-5-carbonitrile] | > 150 nM | < 75 nM
9 | C[C@@H]1CN(c2ccc(C#N)c3nccnc23)C[C@H](c2nc(C3CC3)no2)O1 (racemic) [Example 214, 8-[(2R,6R)-2-(3-Cyclopropyl-[1,2,4]oxadiazol-5-yl)-6-methyl-morpholin-4-yl]-quinoxaline-5-carbonitrile] | 75 to 150 nM | < 75 nM
10 | CCN(CC)CCO[C@@H]1C[C@H](C)CN(c2ccc(C(F)(F)F)c3ncccc23)C1 (relative stereo) [Example 4, diethyl(2-[[cis-5-methyl-1-[8-(trifluoromethyl)quinolin-5-yl]piperidin-3-yl]oxy]ethyl)amine] | > 150 nM | < 75 nM
11 | CC(C(=O)N[C@@H]1C[C@H](C(F)(F)F)CN(c2ccc(C(F)(F)F)c3ncccc23)C1)N1CCN(C)CC1 (single isomer, unassigned) [Example 94] | 75 to 150 nM | < 75 nM

The next lines start with the values.

Row | IC50 [1] | IC50 [2] | Structure (SMILES)
12 | < 75 nM | < 75 nM | C[C@H]1C[C@@H](OCCN2CCN(C)CC2)CN(c2ccc(C#N)c3nccnc23)C1 (racemic) [Example 1, 8-[(3S,5R)-3-methyl-5-[2-(4-methylpiperazin-1-yl)ethoxy]piperidin-1-yl]quinoxaline-5-carbonitrile]
13 | < 75 nM | < 75 nM | CC(C(=O)N[C@@H]1C[C@H](C)CN(c2ccc(C#N)c3nccnc23)C1)N1CCN(C)CC1 (single isomer, unassigned) [Example 90]
14 | < 75 nM | < 75 nM | C[C@H]1C[C@@H](NC(=O)[C@H](C)N2CCN(C)CC2)CN(c2ccc(C#N)c3nccnc23)C1 (single isomer, unassigned) [Example 91]
15 | < 75 nM | < 75 nM | CC(C(=O)N[C@@H]1C[C@H](C)CN(c2ccc(C(F)(F)F)c3ncccc23)C1)N1CCN(C)CC1 (single isomer, unassigned) [Example 92]
16 | < 75 nM | < 75 nM | C[C@H]1C[C@@H](NC(=O)[C@H](C)N2CCN(C)CC2)CN(c2ccc(C(F)(F)F)c3ncccc23)C1 (single isomer, unassigned) [Example 93]
17 | < 75 nM | < 75 nM | C[C@@H](C(=O)N[C@@H]1C[C@H](C(F)(F)F)CN(c2ccc(C(F)(F)F)c3ncccc23)C1)N1CCN(C)CC1 (single isomer, unassigned) [Example 95]
18 | 75 to 150 nM | > 150 nM | CC(C(=O)N[C@@H]1C[C@H](C)CN(c2ccc(C#N)c3ncncc23)C1)N1CCN(C)CC1 (single isomer, unassigned) [Example 96]
19 | < 75 nM | < 75 nM | CC(C(=O)N[C@@H]1C[C@H](C(F)(F)F)CN(c2ccc(C#N)c3nccnc23)C1)N1CCN(C)CC1 (single isomer, unassigned) [Example 98]
20 | 75 to 150 nM | < 75 nM | C[C@@H](C(=O)N[C@@H]1C[C@H](C(F)(F)F)CN(c2ccc(C#N)c3nccnc23)C1)N1CCN(C)CC1 (single isomer, unassigned) [Example 99]
21 | 75 to 150 nM | < 75 nM | CC(C(=O)N[C@@H]1C[C@H](C(F)(F)F)CN(c2ccc(C#N)c3ncccc23)C1)N1CCN(C)CC1 (single isomer, unassigned) [Example 100]
